According to ChEMBL document CHEMBL1909046, “DrugMatrix in vitro pharmacology data”:

Assays:
[1] = target: T1, Muscarinic acetylcholine receptor M4 (Homo sapiens, UniProt P08173); assay type: cell membranes, CHO-K1, Membrane; note: in other assays of this panel Not Active means under 50% inhibition at 10 µM
T1 sequence (P08173 whole entry): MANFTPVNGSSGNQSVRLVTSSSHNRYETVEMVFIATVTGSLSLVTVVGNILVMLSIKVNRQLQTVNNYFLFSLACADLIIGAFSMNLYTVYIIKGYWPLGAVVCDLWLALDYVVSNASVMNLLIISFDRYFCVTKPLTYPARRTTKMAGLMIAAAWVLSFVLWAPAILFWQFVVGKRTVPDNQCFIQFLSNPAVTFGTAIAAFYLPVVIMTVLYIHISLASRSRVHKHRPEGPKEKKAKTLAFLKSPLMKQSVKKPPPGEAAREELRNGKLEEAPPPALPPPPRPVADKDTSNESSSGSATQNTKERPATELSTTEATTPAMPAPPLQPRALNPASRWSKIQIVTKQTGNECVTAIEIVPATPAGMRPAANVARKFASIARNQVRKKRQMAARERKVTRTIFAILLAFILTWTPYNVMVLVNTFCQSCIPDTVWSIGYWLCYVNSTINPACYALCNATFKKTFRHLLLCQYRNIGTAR

[2] = DRUGMATRIX: Calcium Channel Type L, Benzothiazepine radioligand binding (ligand: [3H] Diltiazem); assay type: cell membranes, Rattus norvegicus, Wistar, Brain, Membrane; details: Not Active = under 50% inhibition at 10 µM
[3] = target: Mitogen-activated protein kinase 14 (Homo sapiens, UniProt Q16539); parameters: species or system Escherichia coli;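 note: inhibition of p38alpha enzyme activity in a biochemical kinase assay, with myelin basic protein serving as substrate; in other assays of this panel Not Active means under 50% inhibition at 10 µM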
Chain of Mitogen-activated protein kinase 14 (Q16539 whole entry): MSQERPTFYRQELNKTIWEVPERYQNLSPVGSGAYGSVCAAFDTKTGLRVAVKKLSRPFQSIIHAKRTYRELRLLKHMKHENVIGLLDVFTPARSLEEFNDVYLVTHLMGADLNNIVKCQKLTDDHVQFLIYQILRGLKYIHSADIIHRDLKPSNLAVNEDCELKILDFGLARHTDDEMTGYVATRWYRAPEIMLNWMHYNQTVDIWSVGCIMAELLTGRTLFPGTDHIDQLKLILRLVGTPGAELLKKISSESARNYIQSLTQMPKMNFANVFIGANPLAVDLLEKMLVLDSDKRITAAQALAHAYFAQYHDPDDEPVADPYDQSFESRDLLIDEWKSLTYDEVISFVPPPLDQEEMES

[4] = DRUGMATRIX: beta-Lactamase enzyme inhibition (substrate: Nitrocefin); parameters: species or system Bacillus cereus; details: Not Active = under 50% inhibition at 10 µM
[5] = target: T2, Cholecystokinin receptor type A (Homo sapiens, UniProt P32238); assay type: cell membranes, Membrane; details: 1321-n1; note: in other assays of this panel Not Active means under 50% inhibition at 10 µM
T2 sequence (P32238 whole entry): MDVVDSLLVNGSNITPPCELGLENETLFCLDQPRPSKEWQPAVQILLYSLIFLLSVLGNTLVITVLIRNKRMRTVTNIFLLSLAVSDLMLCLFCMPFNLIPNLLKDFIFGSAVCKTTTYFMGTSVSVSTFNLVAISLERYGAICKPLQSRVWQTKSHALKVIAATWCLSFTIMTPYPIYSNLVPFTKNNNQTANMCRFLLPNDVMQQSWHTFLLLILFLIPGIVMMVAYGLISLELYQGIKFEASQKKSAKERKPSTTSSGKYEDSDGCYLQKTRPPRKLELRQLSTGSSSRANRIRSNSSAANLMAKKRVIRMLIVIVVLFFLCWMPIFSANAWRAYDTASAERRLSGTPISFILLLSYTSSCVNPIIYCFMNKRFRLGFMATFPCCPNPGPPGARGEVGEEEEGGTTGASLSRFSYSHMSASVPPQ

[6] = target: T3, Alpha-1D adrenergic receptor (Homo sapiens, UniProt P25100); assay type: cell membranes, HEK293, Membrane; note: in other assays of this panel Not Active means under 50% inhibition at 10 µM
T3 sequence (P25100 whole entry): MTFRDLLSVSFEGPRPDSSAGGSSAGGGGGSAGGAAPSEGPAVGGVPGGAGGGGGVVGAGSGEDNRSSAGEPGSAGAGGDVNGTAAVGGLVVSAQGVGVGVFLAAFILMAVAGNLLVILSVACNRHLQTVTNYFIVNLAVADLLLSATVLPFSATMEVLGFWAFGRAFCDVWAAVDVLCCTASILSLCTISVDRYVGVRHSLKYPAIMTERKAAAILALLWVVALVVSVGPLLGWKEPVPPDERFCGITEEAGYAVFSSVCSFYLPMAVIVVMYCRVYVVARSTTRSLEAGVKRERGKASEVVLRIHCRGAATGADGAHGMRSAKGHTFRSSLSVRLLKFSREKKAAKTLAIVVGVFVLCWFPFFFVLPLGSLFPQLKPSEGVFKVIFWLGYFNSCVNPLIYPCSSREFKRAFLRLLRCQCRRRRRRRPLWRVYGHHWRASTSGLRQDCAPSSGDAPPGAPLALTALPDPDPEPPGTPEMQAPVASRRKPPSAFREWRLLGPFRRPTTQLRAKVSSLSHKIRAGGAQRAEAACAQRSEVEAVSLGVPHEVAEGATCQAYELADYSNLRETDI

| Compound | IC50 ([1]; cho-k1) | IC50 [2] | Ki [2] | IC50 [3] | IC50 [4] | Ki [4] | IC50 [5] | IC50 ([6]; hek293) | IC50 ([2]; read-out: IC50) [nM] | Ki ([2]; read-out: Ki) [nM] | IC50 ([3]; read-out: IC50) [nM] | IC50 ([1]; read-out: IC50) [nM] | Ki ([1]; read-out: Ki) [nM] | IC50 ([6]; read-out: IC50) [nM] | Ki ([6]; read-out: Ki) [nM] | Ki ([1]; cho-k1) | Ki [3] | Ki [5] | Ki ([6]; hek293) |
| --- | --- | --- | --- | --- | --- | --- | --- | --- | --- | --- | --- | --- | --- | --- | --- | --- | --- | --- | --- |
| CC[C@@]1(O)C(=O)OCc2c1cc1n(c2=O)Cc2cc3c(CN(C)C)c(O)ccc3nc2-1 [TOPOTECAN] | Not Active | Not Active | Not Active | Not Active | Not Active | Not Active | Not Active | Not Active | – | – | – | – | – | – | – | – | – | – | – |
| C#C[C@]1(O)CC[C@H]2[C@@H]3[C@H](C)CC4=C(CCC(=O)C4)[C@H]3CC[C@@]21C [TIBOLONE] | Not Active | Not Active | Not Active | Not Active | Not Active | Not Active | Not Active | Not Active | – | – | – | – | – | – | – | – | – | – | – |
| Oc1ccc(/C=C/c2cc(O)cc(O)c2)cc1 [RESVERATROL] | Not Active | Not Active | Not Active | Not Active | Not Active | Not Active | Not Active | Not Active | – | – | – | – | – | – | – | – | – | – | – |
| Cc1ccc(Cl)c(Nc2ccccc2C(=O)O)c1Cl [MECLOFENAMIC ACID] | Not Active | Not Active | Not Active | Not Active | Not Active | Not Active | Not Active | Not Active | – | – | – | – | – | – | – | – | – | – | – |
| Cc1ccnc(NS(=O)(=O)c2ccc(N)cc2)n1 [SULFAMERAZINE] | Not Active | Not Active | Not Active | Not Active | Not Active | Not Active | Not Active | Not Active | – | – | – | – | – | – | – | – | – | – | – |
| CCOc1cc(N)c(Cl)cc1C(=O)NCC1CN(Cc2ccc(F)cc2)CCO1 (stereo not drawn) [MOSAPRIDE] | Not Active | Not Active | Not Active | Not Active | Not Active | Not Active | Not Active | Not Active | – | – | – | – | – | – | – | – | – | – | – |
| C[C@]12CCC(=O)C[C@@H]1CC[C@@H]1[C@@H]2CC[C@]2(C)[C@@H](O)CC[C@@H]12 [STANOLONE] | Not Active | Not Active | Not Active | Not Active | Not Active | Not Active | Not Active | Not Active | – | – | – | – | – | – | – | – | – | – | – |
| C[N+]1(C)[C@@H]2C[C@@H](OC(=O)[C@H](CO)c3ccccc3)C[C@H]1[C@@H]1O[C@@H]12.[Br-] [METHSCOPOLAMINE BROMIDE] | – | Not Active | Not Active | Not Active | Not Active | Not Active | Not Active | Not Active | – | – | – | – | – | – | – | – | – | – | – |
| OC[C@@H](O)[C@@H](O)[C@H](O)[C@H](O)CO [MANNITOL] | Not Active | Not Active | Not Active | Not Active | Not Active | Not Active | Not Active | Not Active | – | – | – | – | – | – | – | – | – | – | – |
| O=C(O)c1cc(/N=N/c2ccc(S(=O)(=O)Nc3ccccn3)cc2)ccc1O [SULFASALAZINE] | Not Active | Not Active | Not Active | Not Active | Not Active | Not Active | Not Active | Not Active | – | – | – | – | – | – | – | – | – | – | – |
| CC1=C(/C=C/C(C)=C/C=C/C(C)=C/C(=O)O)C(C)(C)CCC1 [TRETINOIN] | Not Active | Not Active | Not Active | Not Active | Not Active | Not Active | Not Active | Not Active | – | – | – | – | – | – | – | – | – | – | – |
| CC[C@H](C)C(=O)O[C@H]1CCC=C2C=C[C@H](C)[C@H](CC[C@@H]3C[C@@H](O)CC(=O)O3)[C@H]21 [MEVASTATIN] | Not Active | Not Active | Not Active | Not Active | Not Active | Not Active | Not Active | Not Active | – | – | – | – | – | – | – | – | – | – | – |
| CCN(CC)C(=S)SSC(=S)N(CC)CC | Not Active | Not Active | Not Active | Not Active | Not Active | Not Active | Not Active | Not Active | – | – | – | – | – | – | – | – | – | – | – |
| O=[As][O-].[Na+] [SODIUM ARSENITE] | Not Active | Not Active | Not Active | Not Active | Not Active | Not Active | Not Active | Not Active | – | – | – | – | – | – | – | – | – | – | – |
| CCN(CC)N=O [N-NITROSODIETHYLAMINE] | Not Active | Not Active | Not Active | Not Active | Not Active | Not Active | Not Active | Not Active | – | – | – | – | – | – | – | – | – | – | – |
| Nc1nc(N)c2nc(-c3ccccc3)c(N)nc2n1 | Not Active | Not Active | Not Active | Not Active | Not Active | Not Active | Not Active | Not Active | – | – | – | – | – | – | – | – | – | – | – |
| CCN(CC)CCNC(=O)c1cc(Cl)c(N)cc1OC [METOCLOPRAMIDE] | Not Active | Not Active | Not Active | Not Active | Not Active | Not Active | Not Active | Not Active | – | – | – | – | – | – | – | – | – | – | – |
| Cc1cc2c(s1)Nc1ccccc1N=C2N1CCN(C)CC1 [OLANZAPINE] | – | – | – | Not Active | – | – | Not Active | – | – | – | – | – | – | – | – | – | – | – | – |
| Cc1nnc(NS(=O)(=O)c2ccc(N)cc2)s1 [SULFAMETHIZOLE] | Not Active | Not Active | Not Active | Not Active | Not Active | Not Active | Not Active | Not Active | – | – | – | – | – | – | – | – | – | – | – |
| CC#C[C@]1(O)CC[C@H]2[C@@H]3CCC4=CC(=O)CCC4=C3[C@@H](c3ccc(N(C)C)cc3)C[C@@]21C [MIFEPRISTONE] | Not Active | – | – | – | Not Active | Not Active | Not Active | Not Active | 29000 | 25800 | 83100 | – | – | – | – | – | – | – | – |
| CS(=O)(=O)c1ccc(C2=C(c3ccccc3)C(=O)OC2)cc1 [ROFECOXIB] | Not Active | Not Active | Not Active | Not Active | Not Active | Not Active | Not Active | Not Active | – | – | – | – | – | – | – | – | – | – | – |
| CC1(C)[C@H](C(=O)O)N2C(=O)C[C@H]2S1(=O)=O [SULBACTAM] | Not Active | Not Active | Not Active | Not Active | Not Active | Not Active | Not Active | Not Active | – | – | – | – | – | – | – | – | – | – | – |
| CO[C@@H]1[C@@H](OC)[C@H](C)[C@@](O)(CC(=O)O)O[C@H]1[C@H](C)[C@H]1O[C@@]2(CC[C@@](C)([C@H]3CC[C@@](C)([C@@H]4O[C@@H]([C@H]5O[C@](C)(O)[C@H](C)C[C@@H]5C)C[C@@H]4O[C@@H]4C[C@H](OC)[C@@H](OC)[C@H](C)O4)O3)O2)C[C@H](O)[C@H]1C.N [MADURAMICIN] | Not Active | Not Active | Not Active | Not Active | Not Active | Not Active | Not Active | Not Active | – | – | – | – | – | – | – | – | – | – | – |
| CNCCCC12CCC(c3ccccc31)c1ccccc12 [MAPROTILINE] | – | – | – | Not Active | – | – | Not Active | – | – | – | – | 413 | 58 | 397 | 195 | – | – | – | – |
| LEAD(IV) ACETATE | Not Active | Not Active | Not Active | Not Active | Not Active | Not Active | Not Active | Not Active | – | – | – | – | – | – | – | Not Active | Not Active | Not Active | Not Active |
| CN(C)CCC=C1c2ccccc2COc2ccccc21 [DOXEPIN] | – | – | – | Not Active | – | – | – | – | – | – | – | – | – | 118 | 58 | – | – | – | – |
